Test results reported in ChEMBL document CHEMBL4251622, “Design, synthesis, and biological evaluation of polo-like kinase 1/eukaryotic elongation factor 2 kinase (PLK1/EEF2K) dual inhibitors for regulating breast cancer cells apoptosis and autophagy” (Eur J Med Chem, 2018).
Activity calls are given as the source filed them. The rule behind the calls is not given here.

Columns and labels:
BT-483 = experiment: Induction of apoptosis in human BT-483 cells assessed as apoptotic nuclear fragment formation at 5 uM after 24 hrs by fluorescence microscopic method; assay type: functional, cell-based
[1] = system: Serine/threonine-protein kinase B-raf (Homo sapiens), P15056 [V600E]; experiment: Inhibition of human partial length BRAF V600E mutant (S429 to E741 residues) expressed in mammalian expression system assessed as residual activity at 1 uM by Kinomescan method relative to control
[2] = target: Tyrosine-protein kinase BTK (Homo sapiens) (UniProt Q06187); experiment: Inhibition of wild-type human full length BTK (M1 to S659 residues) expressed in mammalian expression system assessed as residual activity at 1 uM by Kinomescan method relative to control
[3] = target: Cyclin-dependent kinase 2 (Homo sapiens) (UniProt P24941); experiment: Inhibition of wild-type human full length CDK2 (M1 to L298 residues) expressed in bacterial expression system assessed as residual activity at 1 uM by Kinomescan method relative to control
[4] = target: MAP/microtubule affinity-regulating kinase 3 (Homo sapiens) (UniProt P27448); experiment: Inhibition of wild-type human full length MARK3 (M1 to L729 residues) expressed in bacterial expression system assessed as residual activity at 1 uM by Kinomescan method relative to control
[5] = target: Mitogen-activated protein kinase 14 (Homo sapiens) (UniProt Q16539); experiment: Inhibition of wild-type human full length p38-alpha (M1 to S360 residues) expressed in bacterial expression system assessed as residual activity at 1 uM by Kinomescan method relative to control
[6] = target: cAMP-dependent protein kinase catalytic subunit alpha (Homo sapiens) (UniProt P17612); experiment: Inhibition of wild-type human partial length PKAC-alpha (G10 to F351 residues) expressed in bacterial expression system assessed as residual activity at 1 uM by Kinomescan method relative to control
[7] = target: Proto-oncogene tyrosine-protein kinase receptor Ret (Homo sapiens) (UniProt P07949); experiment: Inhibition of wild-type human partial length RET (E713 to D1014 residues) expressed in bacterial expression system assessed as residual activity at 1 uM by Kinomescan method relative to control
[8] = target: Non-receptor tyrosine-protein kinase TYK2 (Homo sapiens) (UniProt P29597); experiment: Inhibition of wild-type human partial length TYK2 JH1 catalytic domain (V877 to C1187 residues) expressed in mammalian expression system assessed as residual activity at 1 uM by Kinomescan method relative to control
Chain of Non-receptor tyrosine-protein kinase TYK2 (Homo sapiens) (P29597 whole entry, the tested form may be a part): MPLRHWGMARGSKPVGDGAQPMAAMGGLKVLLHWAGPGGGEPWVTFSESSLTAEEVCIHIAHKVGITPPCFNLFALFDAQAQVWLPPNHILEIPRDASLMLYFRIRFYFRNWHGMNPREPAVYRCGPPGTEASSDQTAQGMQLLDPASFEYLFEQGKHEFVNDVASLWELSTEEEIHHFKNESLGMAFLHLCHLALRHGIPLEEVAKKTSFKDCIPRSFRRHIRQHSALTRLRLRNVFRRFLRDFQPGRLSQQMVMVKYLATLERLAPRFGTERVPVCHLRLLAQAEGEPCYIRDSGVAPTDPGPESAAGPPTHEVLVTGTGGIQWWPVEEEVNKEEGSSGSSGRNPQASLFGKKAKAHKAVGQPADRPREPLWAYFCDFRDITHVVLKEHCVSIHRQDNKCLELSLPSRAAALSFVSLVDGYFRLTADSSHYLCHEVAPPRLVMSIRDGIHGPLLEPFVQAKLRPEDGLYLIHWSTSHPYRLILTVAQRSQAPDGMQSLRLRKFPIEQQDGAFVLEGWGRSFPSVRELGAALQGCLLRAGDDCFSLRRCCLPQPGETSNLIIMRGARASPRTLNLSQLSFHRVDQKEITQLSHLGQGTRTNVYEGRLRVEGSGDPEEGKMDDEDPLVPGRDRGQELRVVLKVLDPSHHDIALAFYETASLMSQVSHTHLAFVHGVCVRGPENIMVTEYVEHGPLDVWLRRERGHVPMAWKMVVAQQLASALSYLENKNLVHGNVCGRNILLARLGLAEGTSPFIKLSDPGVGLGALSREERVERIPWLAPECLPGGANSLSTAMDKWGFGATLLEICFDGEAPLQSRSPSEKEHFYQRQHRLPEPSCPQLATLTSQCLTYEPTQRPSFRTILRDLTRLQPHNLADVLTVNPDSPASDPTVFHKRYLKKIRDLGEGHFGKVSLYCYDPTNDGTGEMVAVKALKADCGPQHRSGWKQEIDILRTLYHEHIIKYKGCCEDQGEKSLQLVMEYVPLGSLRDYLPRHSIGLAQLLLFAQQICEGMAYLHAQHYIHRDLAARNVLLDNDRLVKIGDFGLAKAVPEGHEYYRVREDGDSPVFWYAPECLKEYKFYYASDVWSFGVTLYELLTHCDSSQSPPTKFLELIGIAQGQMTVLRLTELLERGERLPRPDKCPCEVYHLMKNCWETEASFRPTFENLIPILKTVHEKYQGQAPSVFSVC

Chain of Proto-oncogene tyrosine-protein kinase receptor Ret (Homo sapiens) (P07949 whole entry, the tested form may be a part): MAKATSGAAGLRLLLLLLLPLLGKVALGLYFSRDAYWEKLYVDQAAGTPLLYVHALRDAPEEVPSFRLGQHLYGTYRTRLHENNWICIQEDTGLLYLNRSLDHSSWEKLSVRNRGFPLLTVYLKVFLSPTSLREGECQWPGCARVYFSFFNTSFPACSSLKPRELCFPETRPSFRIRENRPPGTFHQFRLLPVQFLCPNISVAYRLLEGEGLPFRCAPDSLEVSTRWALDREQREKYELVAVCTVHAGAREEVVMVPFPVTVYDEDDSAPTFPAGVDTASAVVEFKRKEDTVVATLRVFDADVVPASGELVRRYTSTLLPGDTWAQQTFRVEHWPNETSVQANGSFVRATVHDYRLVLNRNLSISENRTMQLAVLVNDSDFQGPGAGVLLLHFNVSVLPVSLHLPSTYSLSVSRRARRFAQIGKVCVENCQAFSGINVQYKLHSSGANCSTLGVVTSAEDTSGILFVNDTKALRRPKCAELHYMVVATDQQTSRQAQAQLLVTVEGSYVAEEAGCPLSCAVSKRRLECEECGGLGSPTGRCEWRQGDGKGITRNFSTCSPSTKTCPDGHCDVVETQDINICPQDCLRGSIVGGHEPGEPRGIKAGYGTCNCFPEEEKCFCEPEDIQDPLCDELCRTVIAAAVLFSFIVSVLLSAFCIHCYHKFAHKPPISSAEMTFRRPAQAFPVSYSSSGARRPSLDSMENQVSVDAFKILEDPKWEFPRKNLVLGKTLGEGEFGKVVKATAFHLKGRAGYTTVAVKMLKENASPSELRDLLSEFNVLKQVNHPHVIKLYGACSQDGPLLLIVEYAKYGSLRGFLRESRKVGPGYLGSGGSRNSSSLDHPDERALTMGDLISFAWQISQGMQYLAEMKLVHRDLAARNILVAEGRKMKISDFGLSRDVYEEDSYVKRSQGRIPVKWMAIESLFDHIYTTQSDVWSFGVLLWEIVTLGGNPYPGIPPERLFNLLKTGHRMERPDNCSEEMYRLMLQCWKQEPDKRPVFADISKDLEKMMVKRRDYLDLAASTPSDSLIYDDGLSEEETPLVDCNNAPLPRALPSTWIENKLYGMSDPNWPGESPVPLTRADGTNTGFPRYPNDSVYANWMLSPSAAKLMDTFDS
Chain of Tyrosine-protein kinase BTK (Homo sapiens) (Q06187 whole entry, the tested form may be a part): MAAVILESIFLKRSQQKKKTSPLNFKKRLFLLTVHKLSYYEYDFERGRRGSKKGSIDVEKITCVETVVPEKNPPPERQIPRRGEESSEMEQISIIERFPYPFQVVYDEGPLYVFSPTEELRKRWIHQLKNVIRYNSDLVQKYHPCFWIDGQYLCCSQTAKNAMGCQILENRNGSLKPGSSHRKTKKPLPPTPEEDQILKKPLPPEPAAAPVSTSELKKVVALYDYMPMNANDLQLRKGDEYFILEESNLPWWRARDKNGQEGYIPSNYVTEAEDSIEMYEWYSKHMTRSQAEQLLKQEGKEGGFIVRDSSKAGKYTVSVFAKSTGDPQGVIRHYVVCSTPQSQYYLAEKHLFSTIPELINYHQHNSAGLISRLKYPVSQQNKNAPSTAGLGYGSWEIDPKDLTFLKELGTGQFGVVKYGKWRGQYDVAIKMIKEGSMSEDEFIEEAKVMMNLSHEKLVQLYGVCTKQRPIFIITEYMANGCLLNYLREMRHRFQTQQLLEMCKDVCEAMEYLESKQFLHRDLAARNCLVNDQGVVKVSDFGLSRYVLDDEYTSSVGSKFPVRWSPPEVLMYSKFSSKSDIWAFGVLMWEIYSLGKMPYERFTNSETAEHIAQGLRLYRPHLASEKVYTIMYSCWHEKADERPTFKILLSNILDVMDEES
Chain of Serine/threonine-protein kinase B-raf (Homo sapiens), P15056 [V600E] (P15056 whole entry V600E, the tested form may be a part): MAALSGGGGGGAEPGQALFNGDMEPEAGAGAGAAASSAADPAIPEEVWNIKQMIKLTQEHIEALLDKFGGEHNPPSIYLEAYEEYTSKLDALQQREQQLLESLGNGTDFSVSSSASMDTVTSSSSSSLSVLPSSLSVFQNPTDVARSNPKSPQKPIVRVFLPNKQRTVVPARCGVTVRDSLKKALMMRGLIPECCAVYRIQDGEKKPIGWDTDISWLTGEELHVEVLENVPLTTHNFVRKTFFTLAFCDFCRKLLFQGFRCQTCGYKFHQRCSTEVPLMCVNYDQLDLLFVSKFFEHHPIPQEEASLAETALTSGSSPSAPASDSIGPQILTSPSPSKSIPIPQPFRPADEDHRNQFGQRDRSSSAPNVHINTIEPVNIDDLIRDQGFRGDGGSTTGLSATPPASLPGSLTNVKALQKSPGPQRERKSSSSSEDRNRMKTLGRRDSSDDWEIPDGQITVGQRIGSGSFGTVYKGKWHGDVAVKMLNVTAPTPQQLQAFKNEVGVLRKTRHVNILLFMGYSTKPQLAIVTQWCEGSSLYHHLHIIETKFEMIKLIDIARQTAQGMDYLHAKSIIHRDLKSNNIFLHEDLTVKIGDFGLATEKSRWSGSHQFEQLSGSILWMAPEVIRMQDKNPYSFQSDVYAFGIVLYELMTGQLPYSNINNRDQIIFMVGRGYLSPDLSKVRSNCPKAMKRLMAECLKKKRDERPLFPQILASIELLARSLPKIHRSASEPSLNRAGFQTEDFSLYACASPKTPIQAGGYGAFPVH
Chain of Mitogen-activated protein kinase 14 (Homo sapiens) (Q16539 whole entry, the tested form may be a part): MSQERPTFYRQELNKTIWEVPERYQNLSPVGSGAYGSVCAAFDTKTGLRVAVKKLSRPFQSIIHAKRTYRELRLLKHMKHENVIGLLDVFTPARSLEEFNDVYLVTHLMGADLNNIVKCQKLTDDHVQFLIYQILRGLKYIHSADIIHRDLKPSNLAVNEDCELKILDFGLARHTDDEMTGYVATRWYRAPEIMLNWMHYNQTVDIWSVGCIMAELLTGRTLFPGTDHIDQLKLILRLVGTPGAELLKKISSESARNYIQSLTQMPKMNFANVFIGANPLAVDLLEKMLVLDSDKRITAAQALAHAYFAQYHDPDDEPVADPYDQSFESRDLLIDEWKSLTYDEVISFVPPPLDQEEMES
Chain of MAP/microtubule affinity-regulating kinase 3 (Homo sapiens) (P27448 whole entry, looked up, the tested form may be a part): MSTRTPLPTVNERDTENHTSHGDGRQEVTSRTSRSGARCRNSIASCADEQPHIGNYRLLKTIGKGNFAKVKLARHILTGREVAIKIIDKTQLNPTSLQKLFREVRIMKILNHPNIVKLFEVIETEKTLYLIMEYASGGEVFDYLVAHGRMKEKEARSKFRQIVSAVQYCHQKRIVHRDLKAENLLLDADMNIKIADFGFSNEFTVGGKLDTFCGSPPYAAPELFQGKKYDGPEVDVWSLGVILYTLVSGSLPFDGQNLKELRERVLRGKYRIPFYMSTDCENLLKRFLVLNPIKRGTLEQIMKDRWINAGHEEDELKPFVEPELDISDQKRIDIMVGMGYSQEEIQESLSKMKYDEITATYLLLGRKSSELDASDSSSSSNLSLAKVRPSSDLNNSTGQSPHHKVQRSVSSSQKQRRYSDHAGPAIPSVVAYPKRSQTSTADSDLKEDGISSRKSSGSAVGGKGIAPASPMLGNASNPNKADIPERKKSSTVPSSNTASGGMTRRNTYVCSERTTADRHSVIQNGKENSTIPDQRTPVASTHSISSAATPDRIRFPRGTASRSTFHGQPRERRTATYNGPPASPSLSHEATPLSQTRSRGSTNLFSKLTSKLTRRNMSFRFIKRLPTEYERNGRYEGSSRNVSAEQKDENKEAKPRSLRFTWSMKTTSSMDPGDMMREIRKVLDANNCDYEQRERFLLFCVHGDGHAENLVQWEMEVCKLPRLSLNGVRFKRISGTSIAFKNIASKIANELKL

CCNc1cc(-c2ccc(NC(=O)Nc3cccc(Cl)c3)cc2C(F)(F)F)ccn1
Activity (BT-483): Active | Activity [1]: 88% | Activity [2]: 83% | Activity [3]: 98% | Activity [4]: 90% | Activity [5]: 84% | Activity [6]: 79% | Activity [7]: 64% | Activity [8]: 65%
